Activity calls are given as the source filed them. No rule for the calls is given here.
Tested on: CCRIS mutagenicity, Ames/micronucleus/aberration tests
Experiment: CCRIS mutagenicity studies
Details: Test System: AMES SALMONELLA TYPHIMURIUM, Method: STANDARD PLATE
[1] = Strain/Indicator: TA98, Metabolic Activation: NONE
[2] = Strain/Indicator: TA100, Metabolic Activation: NONE
[3] = Strain/Indicator: TA1535, Metabolic Activation: NONE

With O=[N+]([O-])c1cc2[nH]c3cc([N+](=O)[O-])c4ccccc4c3c2c2ccccc12 the mutagenic call [1] was “active; positive”, the mutagenic call (Strain/Indicator: TA98, Metabolic Activation: RAT, LIVER, S-9, 3-METHYLCHOLANTHRENE) was “active; positive” and the mutagenic call [2] was “active; positive”. The mutagenic call (Strain/Indicator: TA100, Metabolic Activation: RAT, LIVER, S-9, 3-METHYLCHOLANTHRENE) was “active; positive”.
With CN(Cc1cccc(C#N)c1)N=O the mutagenic call (Strain/Indicator: TA1535, Metabolic Activation: HAMSTER, LIVER, S-9, AROCLOR 1254) was “active; positive” and the mutagenic call [3] was “active; positive”.
With O=S(=O)(NO)c1cccc2cccnc12 the mutagenic call [1] was “inactive; negative”, the mutagenic call (Strain/Indicator: TA98, Metabolic Activation: RAT, LIVER, S-9, AROCLOR 1254) was “inactive; negative” and the mutagenic call [2] was “inactive; negative”. For the same compound, the mutagenic call (Strain/Indicator: TA100, Metabolic Activation: RAT, LIVER, S-9, AROCLOR 1254) was “inactive; negative”, the mutagenic call [3] was “inactive; negative” and the mutagenic call (Strain/Indicator: TA1535, Metabolic Activation: RAT, LIVER, S-9, AROCLOR 1254) was “inactive; negative”. The mutagenic call (Strain/Indicator: TA1537, Metabolic Activation: NONE) was “inactive; negative” and the mutagenic call (Strain/Indicator: TA1537, Metabolic Activation: RAT, LIVER, S-9, AROCLOR 1254) was “inactive; negative”.
